According to US20260041774A1 (RepoCeuticals A/S, priority 2017, published 2026):
Like-named read-outs stand apart in the source and are kept apart here.

Experiments:
[1] = cited from earlier work; for solubility of melatonin in DMSO: room temperature (20 or 25° C.)
[2] = Experimental: The determination of what constitutes initial amount and final amount shall be made using the same experimental techniques. In the experiments presented below, initial and final amounts of degradation products were determined using HPLC as an exemplary measurement technique.
High pressure liquid chromatography (HPLC) elution profiles obtained from a 100×4.6 mm Phenomenex Kinetex column of XB-C18 silica (5 μm particle size) eluted with a linear gradient of solvent B (acetonitrile containing 0.1% v/v acetic acid) 10% to 50% in solvent A (water containing 0.1% v/v acetic acid) from 0.8 to 7.8 min, returning to 10% B at 8.8 min. Peaks were detected by UV absorption at […] wavelength. Overloading sample sizes were used to facilitate the detection of small amounts of breakdown products. […] (FIG. 1A) or 25° C. (FIG. 1B).
HPLC elution profiles were obtained as described for FIG. 1. […] (FIG. 2A) or 25° C. (FIG. 2B).
HPLC elution profiles were obtained as described for FIG. 1. […] (FIG. 3A) or 25° C. (FIG. 3B).

[3] = Solubility of melatonin in aqueous solubilizer mixtures (overnight end-over-end rotation, filtration, HPLC); type: physicochemical; details: 20% (w/w) aqueous glycofurol, 25 °C, aqueous with cosolvent or surfactant or cyclodextrin, thermodynamic from solid
Method: Peaks were detected by UV absorption at 277 μm wavelength. […] To study the effect of adding DMSO to this medium, a medium consisting of 20% (w/w) glycofurol and 40% (w/w) DMSO in water was also prepared.

[4] = test system: oxidative damage in certain model systems; details: certain model systems (Oxenkrug 2005); cited from earlier work
[5] = test system: rat; details: oral; cited from earlier work
[6] = melatonin 10 mg/mL in 20% (w/w) aqueous glycofurol, 45 days at 25° C.
[7] = melatonin 10 mg/mL in 20% (w/w) glycofurol, 40% (w/w) DMSO in water, 45 days at 25° C.

COc1ccc2[nH]cc(CCNC(C)=O)c2c1 [melatonin, N-acetyl-5-methoxytryptamine]
solubility of melatonin in ethanol ([1]; 20° C., EC SCCS/1315/10, 2010): 182 mg/mL | solubility of melatonin in ethanol/water (40/60 v/v) mixture ([1]; 20° C.): 64 mg/mL | solubility of melatonin in water ([1]; 20° C.): approximately 2 g/L | solubility of melatonin in water ([1]; 50° C.): ~5 mg/mL | solubility of melatonin in DMSO ([1]; source MedChem): ≤ 200 mM | solubility of melatonin in DMSO ([1]; source abcam): ≤ 100 mM | solubility of melatonin in DMSO ([1]; source tocris): ≤ 50 mM | melatonin breakdown ([2]; 20% (w/w) glycofurol, 40% (w/w) DMSO in water, 45 days at 25° C.): no evidence of the melatonin breakdown | melatonin breakdown ([2]; 50% (w/w) DMSO, 45 days at 25° C.): no evidence of the melatonin breakdown | degradation peaks (8.1, 8.4 and 8.6 min) together, share of the recovered UV-absorbent material ([2]; 45 days, 10 mg/mL): 0.36% | melatonin peak at 6.0 min ([2]; melatonin 10 mg/mL in 20% (w/w) aqueous glycofurol, 45 days at 5° C.): 5871 absorption units | additional peak at 8.4 min not seen in the 5° C. sample [2, 6]: 8.314 absorption units | additional peak at 8.6 min not seen in the 5° C. sample [2, 6]: 5 absorption units | additional peak at […] not seen in the 5° C. sample [2, 6]: 7.973 absorption units | melatonin peak at 6.0 min [2, 6]: 5831 absorption units | melatonin peak at 6.0 min ([2]; melatonin 10 mg/mL in 20% (w/w) glycofurol, 40% (w/w) DMSO in water, 45 days at 5° C.): 6831 absorption units | additional peaks of UV-absorbent material [2, 7]: no additional peaks | melatonin peak at 6.0 min [2, 7]: 6851 absorption units | melatonin peak at 6.0 min ([2]; melatonin 10 mg/mL in 50% (w/w) aqueous DMSO, 45 days at 5° C.): 8771 absorption units | additional peaks ([2]; melatonin 10 mg/mL in 50% (w/w) aqueous DMSO, 45 days at 5° C. or 25° C.): No additional peaks | melatonin peak at 6.0 min ([2]; melatonin 10 mg/mL in 50% (w/w) aqueous DMSO, 45 days at 25° C.): 8771 absorption units | decline in the melatonin concentrations ([2]; solutions 1), 2) and 3), sealed tubes, 25° C., HPLC on days 0, 10, 17, 31 and 45): no significant decline | solubility [3]: > 10 mg/mL

CC(=O)NCCc1c[nH]c2ccc(O)cc12 [N-acetylserotonin]
protective effect against oxidative damage, times as strong as that of melatonin [4]: 5 to 20 times

CCO [ethanol]
LD50 [5]: 7060 mg/kg

C[S+](C)[O-] [DMSO, dimethyl sulfoxide]
LD50 [5]: 14500 mg/kg
